Data published in patent US20240285808A1, “MOLECULAR PROBES FOR IN VIVO DETECTION OF ALDEHYDES” (The General Hospital Corporation, priority 2021, published 2024).
Where two headings read alike, the source gives them in different places.

Assays:
[1] = Kinetics of hydrolysis of butyraldehyde condensation products; type: physicochemical
Protocol: Quantitative Measurements of Kinetics of Hydrolysis:
One mM solutions of Mn-15-Ald, Mn-16-Ald and Mn-17-Ald (where Mn-Ald refers to the reaction product with either Mn-15, Mn-16, or Mn-17) were prepared by the following procedure: 1 mM (1 mL) of Mn-15, Mn-16 or Mn-17 were prepared in PBS (pH 7.4) followed by addition of butyraldehyde (14.4 mg, […]). The mixture was rocked gently under room temperature for 10 min and then freeze-dried for 12 hours. Then, the obtained white solid was redissolved in 1 mL water.
The HPLC trace of each butyraldehyde reaction product was measured by Method 25 (Mn-15-Ald) and Method 26 (Mn-16-Ald, Mn-17-Ald). Then, a 37% stock solution of formaldehyde was added to give a final formaldehyde concentration of 200 mM.
The hydrolysis of the hydrazone/oxime is reversible. An excess of formaldehyde was added to trap the liberated nitrogen base and thereby push the hydrolysis reaction to completion, allowing the hydrolysis reaction to be monitored without interference from the reverse reaction. So, the kinetics for hydrolysis of Mn-15-Ald, Mn-16-Ald and Mn-17-Ald follows the rate law.
where Y is the % hydrolysis, t is time, kobs,H is the first-order rate constant, and Ymax is the % hydrolysis at t=∞. Kinetic traces were obtained in triplicate, and half-lives were calculated with equation 20: […]
The novel Mn-PC2A derivatives (FIG. 1A) were synthesized in 6 steps from the pyclen macrocycle. Hydrazone formation kinetics with butyraldehyde as a model compound were measured by UV spectroscopy at 220 nm, 25° C., pH 7.4, PBS. Hydrazone hydrolysis kinetics were measured by HPLC with UV detection at 220 nm using excess formaldehyde to trap the liberated hydrazine and prevent the reverse reaction. Allysine-modified BSA (BSA-Ald, 17.4 mg/mL, […] aldehyde) as a soluble model protein or BSA (17.3 mg/mL, 16.8 μM aldehyde) and Mn-15 or Mn-17 (50-200 μM) were incubated at 37° C. for 3 hours, and 1/T1 was measured at 1.4 T, 37° C., and plotted vs concentration to obtain relaxivity. The protein bound probe was isolated by ultrafiltration and the relaxivity of the protein-bound fraction measured. All Mn concentrations were measured by ICP-MS. Liver fibrosis was induced in male C57BL/6 mice by oral gavage with CCl4 for 12 weeks, 2-3 times per week, while control mice received vehicle (olive oil). 3D FLASH images (TR/TE/FA=15 ms/2 ms/30°, 0.25 mm^3 spatial resolution) were acquired on a 4.7 T Bruker Biospec prior to and dynamically for 40 min p.i. of 100 μmol/kg Mn-15. Liver to muscle contrast to noise was calculated as CNR=(SILiver−SIMuscle)/SDAir where SI=signal intensity and SD=standard deviation in SI.

[2] = Biodistribution of ^nat/52Mn-based probes in naïve mice; type: in vivo, mouse; details: 24 h post injection
Protocol: Example 32. Radiolabeling of Compounds 15-18 with ^52Mn and Preparation of ^52/natMn Complex
^52MnCl2 (5 mCi) was received from the cyclotron facility at the Alabama at Birmingham and diluted to 500 μL with 0.1 M HCl. Solution of […] (50 μL, 1.0 mg in 1 mL of 1.5 M NaOAc buffer, pH 4.5) was mixed with 50 μL of ^52MnCl2. The reaction mixture was kept at room temperature for 15 min and diluted with 200 μL of sterile PBS. The injected dose of ^52/natMn complex was obtained by mixing solution of ^52Mn labeled Compound 15-18 with stock solution of ^natMn labeled Compound 15-18 (^natMn final concentration: 30 mM).
Bleomycin-injured mice at 14 days after injury were sedated and then injected with Compound 19, Compound 20, Gd-CHyd (Akam, E. A., et al. Improving the reactivity of hydrazine-bearing MRI probes for in vivo imaging of lung fibrogenesis. Chemical Science 11, 224-231 (2020)) formulated to contain an equal concentration of Eu-DOTA as a non-binding control probe. Animals were then euthanized at 30 minutes after injection. The lungs were harvested separately, along with blood, tail and liver. Each sample was analyzed by ICP-MS for gadolinium and europium content, and the lungs were also assessed for hydroxyproline content. Selectivity is reported as the ratio of Gd to Eu. All animals were dosed via tail vein injection at 100 nmol/g body weight from 30 mM solutions of gadolinium probes with 30 mM Eu-DOTA as determined by ICP-MS. For PET probes, Compounds 1-8 were radiolabeled with either ^68Ga or ^64Cu and the dose was delivered as a bolus injection through tail vein. Animals were euthanized 90 min post injection and their organs and tissues were harvested and counted using a gamma counter. For an imaging study with a PET tracer, animals were injected inside PET/MRI scanner and scanned dynamically for 60 min under anesthesia. The animals were euthanized 90 min post injection and their organs and tissues were counted using a gamma counter. The biodistribution of Mn-15, Mn-16, Mn-17, and Mn-18 was determined by injecting a mixture of ^52/nat complex into naïve mice and activity in each tissue were measured 24 hours post injection.

[3] = butyraldehyde reaction product, formaldehyde 200 mM as trap

| Compound | hydrolysis rate constant [1] | times higher hydrolysis rate constant compared to Mn-17 [1] | hydrolysis rate constant [1, 3] | Biodistribution, Blood [2] | Biodistribution, Bone [2] | Biodistribution, Brain [2] | Biodistribution, Heart [2] | Biodistribution, Intestine [2] | Biodistribution, Kidney [2] | Biodistribution, Liver [2] | Biodistribution, Lung [2] | Biodistribution, Muscle [2] | Biodistribution, Skin [2] | Biodistribution, Spleen [2] | Biodistribution, Stomach [2] |
| --- | --- | --- | --- | --- | --- | --- | --- | --- | --- | --- | --- | --- | --- | --- | --- |
| NNC(CCC(=O)NCCCN1CCN(CC(=O)[O-])Cc2cccc(n2)CN(CC(=O)[O-])CC1)C(=O)O.[Mn+2] (stereo not shown) [Mn-15] | 0.00103 s⁻¹ | 2 fold | 1.03 ± 0.15 ×10^−3 s^−1 | 0.0018 % ID/g | 0.0385 % ID/g | 0.0156 % ID/g | 0.0532 % ID/g | 0.0665 % ID/g | 0.7021 % ID/g | 0.2186 % ID/g | 0.1312 % ID/g | 0.0154 % ID/g | 0.0719 % ID/g | 0.0843 % ID/g | 0.0759 % ID/g |
| NOC(CCC(=O)NCCCN1CCN(CC(=O)[O-])Cc2cccc(n2)CN(CC(=O)[O-])CC1)C(=O)O.[Mn+2] (stereo not shown) [Mn-16] | 7.9e-07 s⁻¹ |  | 0.79 ± 0.03 ×10^−6 s^−1 | 0.0051 % ID/g | 0.1378 % ID/g | 0.0275 % ID/g | 0.1579 % ID/g | 0.1330 % ID/g | 0.9664 % ID/g | 0.3950 % ID/g | 0.4469 % ID/g | 0.0669 % ID/g | 0.9457 % ID/g | 0.1978 % ID/g | 0.1638 % ID/g |
| NNCC(=O)NCCCN1CCN(CC(=O)[O-])Cc2cccc(n2)CN(CC(=O)[O-])CC1.[Mn+2] [Mn-17] | 0.00041 s⁻¹ |  | 0.41 ± 0.01 ×10^−3 s^−1 | 0.0020 % ID/g | 0.0414 % ID/g | 0.0170 % ID/g | 0.0675 % ID/g | 0.0556 % ID/g | 0.5387 % ID/g | 0.2125 % ID/g | 0.1954 % ID/g | 0.0196 % ID/g | 0.0925 % ID/g | 0.0965 % ID/g | 0.0681 % ID/g |
| CN(C)C(CCC(=O)NCCCN1CCN(CC(=O)[O-])Cc2cccc(n2)CN(CC(=O)[O-])CC1)C(=O)O.[Mn+2] (stereo not shown) [Mn-18] |  |  |  | 0.0013 % ID/g | 0.0227 % ID/g | 0.0145 % ID/g | 0.0364 % ID/g | 0.0355 % ID/g | 0.5290 % ID/g | 0.1833 % ID/g | 0.0599 % ID/g | 0.0132 % ID/g | 0.0243 % ID/g | 0.0616 % ID/g | 0.0477 % ID/g |
